Data: patent US20230151025A1, “SUBSTITUTED THIAZOLOPYRIDINES, SALTS THEREOF AND THEIR USE AS HERBICIDALLY ACTIVE SUBSTANCES” (Bayer Aktiengesellschaft, priority 2020, published 2023)

How the values were obtained:
Format in all cases: in vivo
Stellaria media (STEME) [1] = experiment: Herbicidal pre-emergence action (A), 1280 g/ha; conditions: visual grading after ca. 3 weeks vs untreated controls
Source text: (§1) ABUTH: Abutilon theophrasti AGSTE: Agrostis tenuis ALOMY: Alopecurus myosuroides AMARE Amaranthus retroflexus DIGSA: Digitaria sanguinalis ECHCG: Echinochloa crus-galli KCHSC: Kochia scoparia LOLRI: Lolium rigidum MATIN: Matricaria inodora POAAN: Poa annua POLCO: Polygonum convolvulus SETVI: Setaria viridis STEME: Stellaria media VERPE: Veronica persica VIOTR: Viola tricolor
(§2) Seeds of mono- and dicotyledonous weed plants were sown in plastic pots (double sowings with one species of mono- and one species of dicotyledonous weed plants per pot), in sandy loam, and covered with soil. The compounds according to the invention, formulated in the form of wettable powders (WP) or as emulsifiable concentrates (EC), were applied to the surface of the covering soil as aqueous suspension or emulsion, with the addition of 0.5% of an additive, at an application rate of 600 l of water per hectare (converted). Following treatment, the pots were placed in a greenhouse and kept under optimum growth conditions for the test plants. The visual grading of the damage to the test plants was carried out after ca. 3 weeks in comparison to untreated controls (herbicidal effect in percent (%): 100% effect=plants have died off, 0% effect=as control plants).
(§3) Tables A1 to A12, below, show the effects of selected compounds of the general formula (I) according to table 1 on various harmful plants and an application rate corresponding to 1280 g/ha obtained by the experimental procedure mentioned above.

Setaria viridis (SETVI) [2] = experiment: Herbicidal pre-emergence action (A), 1280 g/ha; conditions: visual grading after ca. 3 weeks vs untreated controls
Source text: as §1, §2, §3

Poa annua (POAAN) [3] = experiment: Herbicidal pre-emergence action (A), 1280 g/ha; conditions: visual grading after ca. 3 weeks vs untreated controls, 100% = plants have died off, 0% = as control plants
Source text: as §1, §2, §3

[4] = test system: Echinochloa crus-galli (ECHCG); experiment: Herbicidal pre-emergence action (A), 1280 g/ha; conditions: visual grading after ca. 3 weeks vs untreated controls, 100% = plants have died off, 0% = as control plants
Source text: as §1, §2, §3

[5] = test system: Amaranthus retroflexus (AMARE); experiment: Herbicidal pre-emergence action (A), 1280 g/ha; conditions: visual grading after ca. 3 weeks vs untreated controls
Source text: as §1, §2, §3

[6] = test system: Digitaria sanguinalis (DIGSA); experiment: Herbicidal pre-emergence action (A), 1280 g/ha; conditions: visual grading after ca. 3 weeks vs untreated controls, 100% = plants have died off, 0% = as control plants
Source text: as §1, §2, §3

[7] = test system: Kochia scoparia (KCHSC; Bassia scoparia); experiment: Herbicidal pre-emergence action (A), 1280 g/ha; conditions: visual grading after ca. 3 weeks vs untreated controls
Source text: as §1, §2, §3

[8] = test system: Alopecurus myosuroides (ALOMY); experiment: Herbicidal pre-emergence action (A), 1280 g/ha; conditions: visual grading after ca. 3 weeks vs untreated controls, 100% = plants have died off, 0% = as control plants
Source text: as §1, §2, §3

[9] = test system: Matricaria inodora (MATIN); experiment: Herbicidal pre-emergence action (A), 1280 g/ha; conditions: visual grading after ca. 3 weeks vs untreated controls
Source text: as §1, §2, §3

Lolium rigidum (LOLRI) = experiment: Herbicidal pre-emergence action (A), 1280 g/ha; conditions: visual grading after ca. 3 weeks vs untreated controls, 100% = plants have died off, 0% = as control plants
Source text: as §1, §2, §3

Veronica persica (VERPE) [10] = experiment: Herbicidal pre-emergence action (A), 1280 g/ha; conditions: visual grading after ca. 3 weeks vs untreated controls
Source text: as §1, §2, §3

Stellaria media (STEME) [11] = experiment: Herbicidal post-emergence action (B), 1280 g/ha
Source text: as §1
(§4) Seeds of mono- and dicotyledonous weed plants were placed in plastic pots in sandy loam soil (doubly sown with in each case one species of mono- or dicotyledonous weed plants per pot), covered with soil and cultivated in a greenhouse under controlled growth conditions. 2 to 3 weeks after sowing, the test plants were treated at the one-leaf stage. The compounds of the invention, formulated in the form of wettable powders (WP) or as emulsion concentrates (EC), were applied onto the green parts of the plants as aqueous suspension or emulsion with addition of 0.5% additive at a water application rate of 600 liters per hectare (converted). After the test plants had been kept in the greenhouse under optimum growth conditions for about 3 weeks, the activity of the preparations was rated visually in comparison to untreated controls. For example, 100% activity=the plants have died, 0% activity=like control plants.
(§5) Tables B1 to B12, below, show the effects of selected compounds of the general formula (I) according to table 1 on various harmful plants and an application rate corresponding to 1280 g/ha obtained by the experimental procedure mentioned above.

Poa annua (POAAN) [12] = experiment: Herbicidal post-emergence action (B), 1280 g/ha; conditions: rated visually after about 3 weeks vs untreated controls
Source text: as §1, §4, §5

[13] = test system: Amaranthus retroflexus (AMARE); experiment: Herbicidal post-emergence action (B), 1280 g/ha; conditions: rated visually after about 3 weeks vs untreated controls
Source text: as §1, §4, §5

[14] = test system: Digitaria sanguinalis (DIGSA); experiment: Herbicidal post-emergence action (B), 1280 g/ha; conditions: rated visually after about 3 weeks vs untreated controls
Source text: as §1, §4, §5

[15] = test system: Kochia scoparia (KCHSC; Bassia scoparia); experiment: Herbicidal post-emergence action (B), 1280 g/ha
Source text: as §1, §4, §5

Veronica persica (VERPE) [16] = experiment: Herbicidal post-emergence action (B), 1280 g/ha
Source text: as §1, §4, §5

[17] = test system: Abutilon theophrasti (ABUTH); experiment: Herbicidal post-emergence action (B), 1280 g/ha; conditions: rated visually after about 3 weeks vs untreated controls
Source text: as §1, §4, §5

[18] = test system: Alopecurus myosuroides (ALOMY); experiment: Herbicidal post-emergence action (B), 1280 g/ha; conditions: rated visually after about 3 weeks vs untreated controls
Source text: as §1, §4, §5

Setaria viridis (SETVI) [19] = experiment: Herbicidal post-emergence action (B), 1280 g/ha; conditions: rated visually after about 3 weeks vs untreated controls
Source text: as §1, §4, §5

Setaria viridis (SETVI) [20] = experiment: Herbicidal pre-emergence action (C), 320 g/ha; conditions: ca. 3 weeks
Source text: as §1
Seeds of mono- and dicotyledonous weed plants and crop plants were sown, in plastic or organic planting pots, in sandy loam and covered with soil. The compounds according to the invention, formulated in the form of wettable powders (WP) or as emulsifiable concentrates (EC), were applied to the surface of the covering soil as aqueous suspension or emulsion, with the addition of 0.5% of an additive, at an application rate of 600 l of water/ha (converted).
Following treatment, the pots were placed in a greenhouse and kept under optimum growth conditions for the test plants. The visual grading of the damage to the test plants was carried out after ca. 3 weeks in comparison to untreated controls (herbicidal effect in percent (%): 100% effect=plants have died off, 0% effect=as control plants).
Tables C1 to C13 below show the effects of selected compounds of the general formula (I) according to table 1 on various harmful plants and an application rate corresponding to 320 g/ha obtained by the experimental procedure mentioned above.

[21] = test system: Echinochloa crus-galli (ECHCG); experiment: Herbicidal post-emergence action (B), 1280 g/ha; conditions: rated visually after about 3 weeks vs untreated controls
Source text: as §1, §4, §5

SMILES	herbicidal effect STEME (Stellaria media (STEME) [1]) [%]	herbicidal effect SETVI (Setaria viridis (SETVI) [2]) [%]	POAAN, herbicidal effect in percent (%) (Poa annua (POAAN) [3])	ECHCG, herbicidal effect in percent (%) [4] [%]	herbicidal effect AMARE [5] [%]	DIGSA, herbicidal effect in percent (%) [6] [%]	herbicidal effect KCHSC [7] [%]	ALOMY, herbicidal effect in percent (%) [8] [%]	herbicidal effect MATIN [9] [%]	LOLRI, herbicidal effect in percent (%) (Lolium rigidum (LOLRI))	herbicidal effect VERPE (Veronica persica (VERPE) [10]) [%]	herbicidal effect STEME (Stellaria media (STEME) [11]) [%]	herbicidal activity POAAN (Poa annua (POAAN) [12]) [%]	herbicidal activity AMARE [13] [%]	herbicidal activity DIGSA [14] [%]	herbicidal effect KCHSC [15] [%]	herbicidal effect VERPE (Veronica persica (VERPE) [16]) [%]	herbicidal activity ABUTH [17] [%]	herbicidal activity ALOMY [18] [%]	herbicidal activity SETVI (Setaria viridis (SETVI) [19]) [%]	also measured
CCc1cc2scnc2nc1-c1ccccc1C(F)(F)F [Example I-049]	100	100	100	100	90	90	100	100	90	100	100	90	100	100	90	100	90	–	–	–	–
CCc1cc2scnc2nc1C12CCCCC1O2 (centres unmarked) [Example I-152]	90	100	100	100	90	100	100	–	90	100	90	–	100	100	–	90	100	90	100	–	–
Cc1nc2nc(-c3ccccc3F)c(C)cc2s1 [Example I-001]	90	100	–	100	–	–	–	–	90	–	–	–	–	90	–	–	–	–	–	90	–
Fc1ccc(-c2ccc3scnc3n2)cc1 [Example I-074, 5-(4-fluorophenyl)thiazolo[4,5-b]pyridine]	–	100	100	100	90	100	–	–	–	–	–	90	–	90	100	90	–	–	–	–	–
Cc1cccc(F)c1-c1nc2ncsc2cc1Br [Example I-088]	90	100	100	100	90	–	90	100	90	100	–	100	–	100	–	100	100	90	–	90	–
CCc1cc2scnc2nc1C1=CCCCC1 [Example I-145]	90	100	100	100	100	100	90	100	90	100	100	100	–	100	100	90	100	–	100	–	herbicidal effect SETVI (Setaria viridis (SETVI) [20]): 90%; herbicidal activity ECHCG [21]: 100%
CCc1cc2sc(S)nc2nc1-c1ccccc1F [Example I-165]	90	100	100	–	90	–	–	90	–	–	90	–	–	–	100	90	90	–	–	–	–
Fc1cc(F)c(-c2nc3ncsc3cc2Cl)c(F)c1 [Example I-035]	90	100	100	100	90	–	90	90	90	100	90	–	90	100	–	90	90	90	90	90	herbicidal activity ECHCG [21]: 90%
Cc1cc2sc(S)nc2nc1-c1cccc(F)c1 [Example I-159, 5-(3-fluorophenyl)-6-methyl-thiazolo[4,5-b]pyridine-2-thiol]	–	90	–	–	–	–	–	–	–	–	–	–	–	–	100	90	–	90	–	–	–
Cc1cc2sc([S+](C)[O-])nc2nc1-c1ccccc1 (centres unmarked) [Example I-092]	90	–	90	–	90	–	–	–	–	–	90	–	–	100	100	100	90	90	–	–	–
